Measured values from patent US10344025B2, “GLS1 inhibitors for treating disease” (Board of Regents, The University of Texas System, priority 2014, dated 2019).

Test system: A549 cells
Assay: Proliferation Assay (A549 viability, Cell Titer Fluor, 72 hours)
Format: cell-based
Settings: Homo sapiens, A549, 72 h
Procedure: A549 cells were routinely maintained in RPMI 1640 media (Gibco catalog number 11875-093) supplemented with 10% dialyzed fetal bovine serum using a humidified incubator (37° C., 5% CO2 and ambient O2). In preparation for the viability assay, cells were inoculated into 384-well black CulturPlates (Perkin Elmer) at a density of 1000 cells/well in a volume of 40 uL. Following a 24-hour incubation at 37° C., 5% CO2 and ambient O2, cells were treated with compound (10 uL) in a final DMSO concentration of 0.5% (v/v). The microplates were then incubated for 72 hours (37° C., 5% CO2 and ambient O2). Cell Titer Fluor (Promega) was subsequently added (10 uL of 6× reagent) and mixed for 15 minutes at room temperature. The plates were then incubated for 30 minutes (37° C., 5% CO2 and ambient O2) and fluorescence was subsequently read on the Perkin Elmer Envision plate reader. IC50 values were calculated using a four-parameter logistic curve fit.
Non-limiting examples include the following compounds and pharmaceutically acceptable salts thereof. […] “ND” indicates no data.

With CNC(=O)c1cn(CCCCc2ccc(NC(=O)Cc3cc(-c4cccc(Cl)c4OC(F)(F)F)ccn3)nn2)nn1 [Example 608, 1-(4-(6-(2-(4-(3-chloro-2-(trifluoromethoxy)phenyl)pyridin-2-yl)acetamido)pyridazin-3-yl)butyl)-N-methyl-1H-1,2,3-triazole-4-carboxamide] the EC50 was under 100 nM.

Work on CNC(=O)c1cn(CCCCc2ccc(NC(=O)Cc3cc(-c4cccc(OC(F)(F)F)c4)ccn3)nn2)nn1 [Example 192, N-methyl-1-(4-(6-(2-(4-(3-(trifluoromethoxy)phenyl)pyridin-2-yl)acetamido)pyridazin-3-yl)butyl)-1H-1,2,3-triazole-4-carboxamide] yielded an EC50 of under 100 nM.

In the case of CNC(=O)c1cn(CCCCc2ccc(NC(=O)Cc3cc(OCC(F)(F)F)ccn3)nn2)nn1 [Example 225, N-methyl-1-(4-(6-(2-(4-(2,2,2-trifluoroethoxy)pyridin-2-yl)acetamido)pyridazin-3-yl)butyl)-1H-1,2,3-triazole-4-carboxamide], the EC50 is reported as 100 to 500 nM.

Work on CNC(=O)c1cn(CCCCc2ccc(NC(=O)Cc3cc(C(F)(F)F)ccn3)nn2)nn1 [Example 210, N-methyl-1-(4-(6-(2-(4-(trifluoromethyl)pyridin-2-yl)acetamido)pyridazin-3-yl)butyl)-1H-1,2,3-triazole-4-carboxamide] yielded an EC50 of 100 to 500 nM.

CNC(=O)c1cn(CCCCc2ccc(NC(=O)Cc3cc(C4CC4)ccn3)nn2)nn1 [Example 190, 1-(4-{6-[2-(4-cyclopropylpyridin-2-yl)acetamido]pyridazin-3-yl}butyl)-N-methyl-1H-1,2,3-triazole-4-carboxamide] was tested, and the EC50 was 100 to 500 nM.

COCCNC(=O)c1cn(CCCCc2ccc(NC(=O)Cc3cccc(OC(F)(F)F)c3)nn2)nn1 [Example 551, N-(2-methoxyethyl)-1-[4-(6-{2-[3-(trifluoromethoxy)phenyl]acetamido}pyridazin-3-yl)butyl]-1H-1,2,3-triazole-4-carboxamide] was tested, and the EC50 was 100 to 500 nM.

For CC(C)NC(=O)c1nnc(CCCCn2cc(C(=O)NCc3cccc(OC(F)(F)F)c3)nn2)s1 [Example 43, N-(propan-2-yl)-5-{4-[4-({[3-(trifluoromethoxy)phenyl]methyl}carbamoyl)-1H-1,2,3-triazol-1-yl]butyl}-1,3,4-thiadiazole-2-carboxamide], the EC50 was 100 to 500 nM.

CNC(=O)c1cn(CCCCc2ccc(NC(=O)Cc3cc(OC4CC(F)(F)C4)ccn3)nn2)nn1 [Example 261, 1-(4-(6-(2-(4-(3,3-difluorocyclobutoxy)pyridin-2-yl)acetamido)pyridazin-3-yl)butyl)-N-methyl-1H-1,2,3-triazole-4-carboxamide] showed an EC50 of under 100 nM.

N#CCNC(=O)c1cn(CCCCc2ccc(NC(=O)Cc3cccc(OC(F)(F)F)c3)nn2)nn1 [Example 527, N-(cyanomethyl)-1-[4-(6-{2-[3-(trifluoromethoxy)phenyl]acetamido}pyridazin-3-yl)butyl]-1H-1,2,3-triazole-4-carboxamide] showed an EC50 of under 100 nM.

With CNC(=O)c1cn(C[C@H](F)CCc2ccc(NC(=O)Cc3cc(OC4CC(F)(F)C4)ccn3)nn2)nn1 [Example 272, (R)-1-(4-(6-(2-(4-(3,3-difluorocyclobutoxy)pyridin-2-yl)acetamido)pyridazin-3-yl)-2-fluorobutyl)-N-methyl-1H-1,2,3-triazole-4-carboxamide] the EC50 was under 100 nM.

CNC(=O)c1cn(CC(F)CCc2ccc(NC(=O)Cc3cc(C(F)(F)F)ccn3)nn2)nn1 (stereo not shown) [Example 248, 1-(2-fluoro-4-(6-(2-(4-(trifluoromethyl)pyridin-2-yl)acetamido)pyridazin-3-yl)butyl)-N-methyl-1H-1,2,3-triazole-4-carboxamide] showed an EC50 of under 100 nM.

CC(C)CNC(=O)c1nnc(CCCCn2cc(C(=O)NCc3cccc(OC(F)(F)F)c3)nn2)s1 [Example 44, N-(2-methylpropyl)-5-{4-[4-({[3-(trifluoromethoxy)phenyl]methyl}carbamoyl)-1H-1,2,3-triazol-1-yl]butyl}-1,3,4-thiadiazole-2-carboxamide] showed an EC50 of 100 to 500 nM.

O=C(Cc1cccc(OC(F)(F)F)c1)Nc1ccc(CCCCn2cc(C(=O)NCc3ccccn3)nn2)nn1 [Example 529, N-(pyridin-2-ylmethyl)-1-[4-(6-{2-[3-(trifluoromethoxy)phenyl]acetamido}pyridazin-3-yl)butyl]-1H-1,2,3-triazole-4-carboxamide] gave an EC50 of under 100 nM.

Compound CNC(=O)c1cn(CCCCc2ccc(NC(=O)Cc3cc(Cl)ccn3)nn2)nn1 [Example 191, 1-(4-{6-[2-(4-chloropyridin-2-yl)acetamido]pyridazin-3-yl}butyl)-N-methyl-1H-1,2,3-triazole-4-carboxamide] has an EC50 of 100 to 500 nM.

Work on CNC(=O)c1cn(C[C@H](F)CCc2ccc(NC(=O)Cc3cc(-c4cccc(OC(F)(F)F)c4)ccn3)nn2)nn1 [Example 255, (R)-1-(2-fluoro-4-(6-(2-(4-(3-(trifluoromethoxy)phenyl)pyridin-2-yl)acetamido)pyridazin-3-yl)butyl)-N-methyl-1H-1,2,3-triazole-4-carboxamide] yielded an EC50 of under 100 nM.

For CNC(=O)c1cn(CCCCc2ccc(NC(=O)Cc3cncc(Br)c3)nn2)nn1 [Example 546, 1-(4-{6-[2-(5-bromopyridin-3-yl)acetamido]pyridazin-3-yl}butyl)-N-methyl-1H-1,2,3-triazole-4-carboxamide], the EC50 was 100 to 500 nM.

Compound CNC(=O)c1cn(CC(F)CCc2ccc(NC(=O)Cc3cc(C(F)(F)F)cc(C)n3)nn2)nn1 (stereo not shown) [Example 264, 1-(2-fluoro-4-(6-(2-(6-methyl-4-(trifluoromethyl)pyridin-2-yl)acetamido)pyridazin-3-yl)butyl)-N-methyl-1H-1,2,3-triazole-4-carboxamide] has an EC50 of under 100 nM.

COc1cncc(CNC(=O)c2cn(CC(F)CCc3nnc(NC(=O)Cc4cccc(OC(F)(F)F)c4)s3)nn2)c1 (stereo not shown) [Example 222, 1-(2-fluoro-4-(5-(2-(3-(trifluoromethoxy)phenyl)acetamido)-1,3,4-thiadiazol-2-yl)butyl)-N-((5-methoxypyridin-3-yl)methyl)-1H-1,2,3-triazole-4-carboxamide] showed an EC50 of under 100 nM.

With O=C(Cc1ccccn1)Nc1ccc(CCCCn2cc(C(=O)NCc3cc(C(F)(F)F)ccn3)nn2)nn1 [Example 203, 1-(4-(6-(2-(pyridin-2-yl)acetamido)pyridazin-3-yl)butyl)-N-((4-(trifluoromethyl)pyridin-2-yl)methyl)-1H-1,2,3-triazole-4-carboxamide] the EC50 was under 100 nM.

CNC(=O)c1cn(CCCCc2ccc(NC(=O)Cc3cc(-c4ccc(F)cc4C(F)(F)F)ccn3)nn2)nn1 [Example 606, 1-(4-(6-(2-(4-(4-fluoro-2-(trifluoromethyl)phenyl)pyridin-2-yl)acetamido)pyridazin-3-yl)butyl)-N-methyl-1H-1,2,3-triazole-4-carboxamide] showed an EC50 of under 100 nM.

CNC(=O)c1cn(CCCCc2ccc(NC(=O)Cc3cccc(OC(F)(F)F)c3)nn2)nn1 [Example 157, N-methyl-1-(4-(6-(2-(3-(trifluoromethoxy)phenyl)acetamido)pyridazin-3-yl)butyl)-1H-1,2,3-triazole-4-carboxamide] was tested, and the EC50 was 100 to 500 nM.

For CNC(=O)c1cn(CC(F)CCc2ccc(NC(=O)Cc3cc(OC4CC(F)(F)C4)ccn3)nn2)nn1 (stereo not shown) [Example 252, 1-(4-(6-(2-(4-(3,3-difluorocyclobutoxy)pyridin-2-yl)acetamido)pyridazin-3-yl)-2-fluorobutyl)-N-methyl-1H-1,2,3-triazole-4-carboxamide], the EC50 was under 100 nM.
